Laboratory results as given in ChEMBL document CHEMBL3797167, “Development of a peptide-based inducer of nuclear receptors degradation” (Bioorg Med Chem Lett, 2016).
Active and inactive are the calls of the source. The calls are words filed in the database; no cut-off is given here.

Columns and labels:
Format in all cases: cell-based
[1] = molecular target: T1, Estrogen receptor (Homo sapiens) (UniProt P03372); assay: Induction of ERalpha degradation in human MCF7 cells at 10 to 20 uM after 6 hrs by Western blot analysis
T1 sequence (whole entry): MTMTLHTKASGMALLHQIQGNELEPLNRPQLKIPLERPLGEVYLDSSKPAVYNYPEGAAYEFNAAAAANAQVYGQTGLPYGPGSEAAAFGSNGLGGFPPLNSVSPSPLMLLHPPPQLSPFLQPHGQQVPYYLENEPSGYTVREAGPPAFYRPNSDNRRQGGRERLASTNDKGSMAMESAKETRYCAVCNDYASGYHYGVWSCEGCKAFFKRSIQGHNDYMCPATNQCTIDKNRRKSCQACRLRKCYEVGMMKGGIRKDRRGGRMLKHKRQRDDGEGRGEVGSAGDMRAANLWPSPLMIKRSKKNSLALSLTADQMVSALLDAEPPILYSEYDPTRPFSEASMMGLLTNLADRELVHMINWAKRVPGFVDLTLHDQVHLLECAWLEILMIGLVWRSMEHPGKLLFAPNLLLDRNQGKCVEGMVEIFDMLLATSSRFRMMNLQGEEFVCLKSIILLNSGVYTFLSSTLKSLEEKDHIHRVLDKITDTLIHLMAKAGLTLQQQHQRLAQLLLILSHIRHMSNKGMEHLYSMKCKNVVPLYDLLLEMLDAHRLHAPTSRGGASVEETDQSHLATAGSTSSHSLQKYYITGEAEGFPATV

[2] = tested on: MCF7; assay: Cytotoxicity against human MCF7 cells at 20 uM after 6 hrs; details: mcf7, 6 h
[3] = molecular target: T1, Estrogen receptor (Homo sapiens); assay: Induction of ERalpha degradation in human MCF7 cells at 10 to 20 uM after 6 hrs by Western blot analysis in presence of MG132
[4] = molecular target: Baculoviral IAP repeat-containing protein 2 (Homo sapiens) (UniProt Q13490); assay: Induction of cIAP1 degradation in human MCF7 cells at 10 to 20 uM after 6 hrs by Western blot analysis in presence of MG132
[5] = molecular target: T2, Androgen receptor (Homo sapiens) (UniProt P10275); assay: Induction of AR degradation in human MCF7 cells at 10 to 20 uM after 6 hrs by Western blot analysis
T2 sequence (whole entry): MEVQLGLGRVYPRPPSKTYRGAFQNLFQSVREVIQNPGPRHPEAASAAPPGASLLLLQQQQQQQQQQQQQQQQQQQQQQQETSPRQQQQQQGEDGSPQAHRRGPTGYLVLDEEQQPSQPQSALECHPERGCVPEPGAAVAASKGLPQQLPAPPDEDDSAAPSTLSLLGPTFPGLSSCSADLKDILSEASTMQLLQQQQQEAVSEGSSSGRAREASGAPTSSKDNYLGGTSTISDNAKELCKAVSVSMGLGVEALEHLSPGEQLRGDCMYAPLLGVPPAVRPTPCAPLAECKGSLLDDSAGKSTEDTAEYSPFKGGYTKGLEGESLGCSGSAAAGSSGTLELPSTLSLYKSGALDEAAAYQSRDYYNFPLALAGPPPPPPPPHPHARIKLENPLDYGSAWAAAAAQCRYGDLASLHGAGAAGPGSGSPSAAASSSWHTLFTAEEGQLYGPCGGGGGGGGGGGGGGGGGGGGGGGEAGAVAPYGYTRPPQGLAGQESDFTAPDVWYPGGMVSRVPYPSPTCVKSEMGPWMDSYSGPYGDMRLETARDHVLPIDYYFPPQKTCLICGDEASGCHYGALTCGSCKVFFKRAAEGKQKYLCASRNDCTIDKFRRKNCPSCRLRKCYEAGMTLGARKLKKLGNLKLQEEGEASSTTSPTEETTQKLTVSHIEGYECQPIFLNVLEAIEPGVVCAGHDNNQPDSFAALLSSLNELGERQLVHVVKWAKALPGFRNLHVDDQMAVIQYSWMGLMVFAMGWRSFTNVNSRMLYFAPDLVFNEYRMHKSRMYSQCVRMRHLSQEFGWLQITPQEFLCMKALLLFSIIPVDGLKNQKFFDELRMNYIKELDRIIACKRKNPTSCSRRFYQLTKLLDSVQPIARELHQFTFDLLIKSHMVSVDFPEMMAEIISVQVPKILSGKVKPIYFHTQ

[6] = molecular target: T2, Androgen receptor (Homo sapiens); assay: Induction of AR degradation in human MCF7 cells at 10 to 20 uM after 6 hrs by Western blot in presence of MG132
[7] = molecular target: T3, Aryl hydrocarbon receptor (Homo sapiens, UniProt P35869); assay: Induction of AhR degradation in human MCF7 cells at 10 to 20 uM after 6 hrs by Western blot analysis; details: mcf7, 6 h
T3 sequence (P35869 whole entry): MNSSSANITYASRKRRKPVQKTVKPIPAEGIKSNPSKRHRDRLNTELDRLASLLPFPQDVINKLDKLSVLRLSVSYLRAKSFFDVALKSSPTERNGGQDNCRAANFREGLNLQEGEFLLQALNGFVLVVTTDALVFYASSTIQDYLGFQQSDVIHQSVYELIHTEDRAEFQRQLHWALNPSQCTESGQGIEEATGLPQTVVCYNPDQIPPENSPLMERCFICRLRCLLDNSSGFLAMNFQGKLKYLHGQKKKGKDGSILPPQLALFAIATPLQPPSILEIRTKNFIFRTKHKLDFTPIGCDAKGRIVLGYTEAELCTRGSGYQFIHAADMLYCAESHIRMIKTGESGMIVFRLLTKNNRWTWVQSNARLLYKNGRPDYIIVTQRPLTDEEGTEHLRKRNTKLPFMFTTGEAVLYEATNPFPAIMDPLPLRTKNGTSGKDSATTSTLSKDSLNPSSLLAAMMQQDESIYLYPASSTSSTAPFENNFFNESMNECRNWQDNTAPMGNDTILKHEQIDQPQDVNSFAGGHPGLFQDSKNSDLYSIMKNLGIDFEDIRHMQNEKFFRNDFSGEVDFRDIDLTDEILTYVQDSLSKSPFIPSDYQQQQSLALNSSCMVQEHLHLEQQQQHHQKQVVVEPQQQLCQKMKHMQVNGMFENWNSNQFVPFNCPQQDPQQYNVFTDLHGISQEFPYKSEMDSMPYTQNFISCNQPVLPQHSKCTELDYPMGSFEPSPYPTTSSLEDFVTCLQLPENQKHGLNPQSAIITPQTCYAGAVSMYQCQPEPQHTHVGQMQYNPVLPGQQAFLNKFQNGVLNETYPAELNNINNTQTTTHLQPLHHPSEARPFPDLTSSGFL

[8] = molecular target: T1, Estrogen receptor (Homo sapiens); assay: Induction of ERalpha degradation in human MCF7 cells assessed as ERalpha/lamin ratio level at 20 uM after 6 hrs by Western blot analysis (reference value: 100%)
[9] = molecular target: T2, Androgen receptor (Homo sapiens); assay: Induction of AR degradation in human MCF7 cells assessed as AR/lamin ratio level at 10 uM after 6 hrs by Western blot analysis (reference value: 100%)
[10] = molecular target: T2, Androgen receptor (Homo sapiens); assay: Induction of AR degradation in human MCF7 cells assessed as AR/lamin ratio level at 20 uM after 6 hrs by Western blot analysis (reference value: 100%)
[11] = molecular target: T1, Estrogen receptor (Homo sapiens); assay: Induction of ERalpha degradation in human MCF7 cells assessed as ERalpha/lamin ratio level at 10 uM after 6 hrs by Western blot analysis (reference value: 100%)
[12] = molecular target: T3, Aryl hydrocarbon receptor; assay: Induction of AhR degradation in human MCF7 cells assessed as AhR/lamin ratio level at 10 uM after 6 hrs by Western blot analysis (reference value: 100%); details: mcf7, 6 h
[13] = molecular target: T3, Aryl hydrocarbon receptor; assay: Induction of AhR degradation in human MCF7 cells assessed as AhR/lamin ratio level at 20 uM after 6 hrs by Western blot analysis (reference value: 100%); details: mcf7, 6 h

Baculoviral IAP repeat-containing protein 2 (Homo sapiens), sequence (Q13490 whole entry): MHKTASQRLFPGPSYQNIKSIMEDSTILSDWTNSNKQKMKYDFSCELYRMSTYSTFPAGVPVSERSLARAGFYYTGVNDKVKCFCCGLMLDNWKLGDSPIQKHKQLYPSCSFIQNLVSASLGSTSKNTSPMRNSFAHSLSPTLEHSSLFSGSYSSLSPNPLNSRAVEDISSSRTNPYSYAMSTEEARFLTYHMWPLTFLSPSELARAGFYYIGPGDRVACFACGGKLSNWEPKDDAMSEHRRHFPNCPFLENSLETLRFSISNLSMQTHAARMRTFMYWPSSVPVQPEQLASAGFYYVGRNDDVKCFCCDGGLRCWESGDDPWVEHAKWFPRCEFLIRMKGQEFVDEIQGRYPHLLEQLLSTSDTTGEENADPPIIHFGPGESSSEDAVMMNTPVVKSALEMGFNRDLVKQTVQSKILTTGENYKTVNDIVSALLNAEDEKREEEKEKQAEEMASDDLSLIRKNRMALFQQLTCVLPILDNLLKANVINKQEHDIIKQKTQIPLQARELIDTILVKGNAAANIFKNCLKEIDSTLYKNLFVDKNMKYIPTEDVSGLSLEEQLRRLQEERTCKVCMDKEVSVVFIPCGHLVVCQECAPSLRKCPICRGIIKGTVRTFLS

CC[C@@H](C)[C@@H]1NC(=O)[C@H](NC(=O)[C@H](N)CCCCNC(=O)CCNC(=O)CCNC(=O)CCNC(=O)CCNC(=O)CCNC(=O)[C@H](NC(=O)[C@H]2CCCN2C(=O)[C@@H](NC(=O)[C@@H](C)NC)C2CCCCC2)C(c2ccccc2)c2ccccc2)CSSC[C@@H](C(=O)N[C@@H](CCCNC(=N)N)C(=O)N[C@@H](CC(C)(C)C)C(=O)N[C@@H](CC(C)C)C(=O)N[C@@H](CCC(N)=O)C(=O)NCC(=O)NCC(=O)NCC(=O)N[C@@H](CCCNC(=N)N)C(=O)N[C@@H](CCCNC(=N)N)C(=O)N[C@@H](CCCNC(=N)N)C(=O)N[C@@H](CCCNC(=N)N)C(=O)N[C@@H](CCCNC(=N)N)C(=O)N[C@@H](CCCNC(=N)N)C(=O)N[C@H](CCCNC(=N)N)C(N)=O)NC(=O)[C@H](CC(C)C)NC1=O
Activity [1]: Active | Activity [2]: Non-toxic | Activity [3]: inactive | Activity [4]: inactive | Activity [5]: Active | Activity [6]: inactive | Activity [7]: Not Active | Activity [8]: 64% | Activity [9]: 77% | Activity [10]: 54% | Activity [11]: 82% | Activity [12]: 109% | Activity [13]: 98%
